In data set [1] the test system is gastric juice pH. The following applies: cited from earlier work.
Data set [2] relates to gastric juice pH. To be noted: 30 ml of 0.3 M, pretreatment in elective cesarean section patients; cited from earlier work.
The conditions of data set [3]: cited from earlier work; for Volume of HCl neutralized by 30 ml: 30 ml (sodium citrate 0.3M).
The conditions of data set [4]: cited from earlier work.
The conditions of data set [5]: in vivo; cited from earlier work.
The conditions of data set [6]: approximately 5 ml of 8.4% solution.
Description: In particular, 5 mls of this 8.4% solution can be administered into a patient's stomach at least 15 minutes prior to baseline measurement of gastric juice pH and administration of stimulant, such as pentagastrin.

Structures are written as SMILES. Like-named read-outs stand apart in the source and are kept apart here.

As to `O=C([O-])CC(O)(CC(=O)[O-])C(=O)[O-].[Na+].[Na+].[Na+]` [Sodium Citrate, sodium citrate], the “gastric juice pH, mean after administration” value in the data set with gastric juice pH [1] (50 ml of 0.3 M into the stomach via nasogastric tube, within two minutes, baseline 1.2±0.1) is listed as 4.8. For the same molecule, the “gastric juice pH, range after administration” value in the data set on gastric juice pH [1] (50 ml of 0.3 M via nasogastric tube, within two minutes) is 6.7-7.0. The “time gastric juice pH maintained above 6” value in the data set on gastric juice pH [1] (50 ml of 0.3 M) is “at least 2 hours”. Also, in the data set on gastric juice pH [1] (50 ml of 0.3 M, for at least 2 hours), the “gastric juice pH maintained after administration” value is “above 6”. Further, in the data set on gastric juice pH [2], the “change in gastric juice pH” value is recorded as “significant increase in gastric juice pH”. The “Volume of HCl neutralized by 30 ml” value in data set [3] (HCl pH 0.8) was 140 mL; in data set [3] (HCl pH 1 (1.0)) it was 255 mL; in data set [3] (HCl pH 1 (1.0), listed as sodium citrate), “up to 255 ml”; in data set [3] (HCl pH 1.5), 750 mL. Moreover, the “pH (value in parentheses after the antacid's name)” value in data set [3] (presumably pH of the antacid itself, not explained) is “Sodium Citrate (8.5)”.
Take `Cl.Cl.NCCc1ccn[nH]1` [betazole hydrocholoride]: the side effects entry in data set [4] (orally administered) is on record as “few side effects”.
Take `NCCc1c[nH]cn1` [histamine]: the side effects result in data set [4] (large doses) is recorded as “severe hypotension”.
As to `CSCC[C@H](NC(=O)[C@H](Cc1c[nH]c2ccccc12)NC(=O)CCNC(=O)OC(C)(C)C)C(=O)N[C@@H](CC(=O)O)C(=O)N[C@@H](Cc1ccccc1)C(N)=O` [pentagastrin], the half-life result in data set [5] is listed as “approximately 10 minutes”. In addition, the safety profile result in data set [4] (in vivo) was “very good safety profile”. The side effects result in data set [4] (intravenous 0.5 mcg/kg bolus over 30 seconds) was “abdominal fullness and an urge to defecate”; in data set [4] (intravenous administration), “transient mild side effects, e.g., anxiety, palpitations”.
For `O=C([O-])O.[Na+]` [sodium bicarbonate], the “volume of gastric juice (pH 1.0) neutralized” value in data set [6] worked out at 50 ml.

The values are drawn from US11925450B2, “Methods and apparatus for guiding medical care based on detected gastric function” (Gravitas Medical, Inc., priority 2011, dated 2024).
